US20210128536A1, “WEAKLY BASIC DRUG AND IONIC POLYMER PHARMACEUTICAL FORMULATIONS AND METHODS OF FORMATION AND ADMINISTRATION THEREOF” (DISPERSOL TECHNOLOGIES, LLC, priority 2019, published 2021)

Test: Thermal stability by thermogravimetric analysis (TGA)
Format: physicochemical
Details: at relevant processing temperatures (<250° C.)
Description: Prior to thermokinetic processing, thermal stability of BI 667 was assessed using thermogravimetric analysis (TGA). BI 667 was considered stable (<1% mass loss on TGA) at relevant processing temperatures (<250° C.). […] (data not shown). […] Thus, a max processing temperature (and therefore ejection set point temperature) of the mixture was set at 160° C. TGA was performed on a TGA/DSC 1 (Mettler Toledo, Schwerzenbach, Switzerland). The temperature ramp utilized in this study was performed from 25 to 300° C. at a rate of 5° C./min with a nitrogen purge of 50 mL/min. Data were analyzed using STARE System.

CS(=O)(=O)c1cc(C2(NC(=O)c3cncc4c3cnn4-c3ccc(F)cc3)CC2)ccn1 [BI 667]
mass loss on TGA: < 1%
